Test results from patent US20220031740A1, “THERAPEUTIC USES OF ATOMIC QUANTUM CLUSTERS” (priority 2018, published 2022).

Columns and labels:
[1] = test system: A549luc orthotopic lung tumour and mediastinal lymph node metastases; test: A549luc orthotopic lung cancer model metastasizing to mediastinal lymph nodes; assay type: in vivo
Experimental: (a) Ag5-AQCs cause a reduction in tumour growth in mice with orthotopic brain cancer. Experimental groups: Ag5-AQCs (0.25 mg/kg) and control (no treatment). (b-d) Ag5-AQCs treatment causes a reduction in tumour growth in mice with orthotopic lung cancer. (b) Tumour growth measured in vivo by luminescence (IVIS® Spectrum). Black arrows represent treatment administration times in the study. (c) Luciferase activity quantification measured ex vivo in lung and in mediastinal lymph nodes. (d) Immunohistochemical staining of lung tumour (arrows indicate the tumour nodules). Experimental groups: CDDP (4 mg/kg), Ag5-AQCs (0.25 mg/kg) and control (no treatment). (e) Body weight over the whole experiment. […]
For Ag5-AQCs treatment, mice were divided into three groups (5 animals in each): the first group (control) underwent no treatment, the second group was treated with cisplatin (CDDP) (four single doses, 4 mg/kg) and the third group was treated with Ag5-AQCs (four single doses, 0.25 mg/kg). […] The lung and mediastinal lymph nodes were removed and luminescence was quantified per microgram of protein in body as described in Borrajo et al. (2016). […]
Another limiting factor in cancer treatment is the occurrence of metastasis. […] In this model the occurrence of metastasis to lymph nodes is well established and could be detected 13 days after the injection of tumour cells. […]

E. Co/i = test: E. coli survival with Ag5-AQC and DTT; assay type: cell-based; conditions: DTT at 10 mM
Source text: The mechanism responsible is thought to be thiol oxidation. […] The opposite is also true, i.e. Ag5-AQCs rescue E. Co/i from DTT action as expected from to redox agents with opposed action.

Nrf2 = Nrf2 location by immunofluorescence in HEK293 cells; assay type: cell-based, human; conditions: HEK293, 30 minutes; Ag5-AQC IC50, NEM 100 μM

Which “luciferase activity in the primary tumour and in the mediastinal lymph nodes (ex vivo)” value ([1]; day 37, vs control mice) does the source give for [NH2][Pt]([NH2])([Cl])[Cl] [CDDP, Cisplatin] here?
Its value is “significant reduction in luciferase activity”.

And the “tumour size in lung (in vivo bioluminescence)” value ([1]; intravenously days 20, 22, 24, 26, CDDP 4 mg/kg, Ag5-AQC 0.25 mg/kg, 37 days, vs control)?
The value was “significant reduction in tumour size”.

O[C@H](CS)[C@H](O)CS (racemic) [DTT, Dithiothreitol] was tested. Which “E. coli survival, DTT alone” value (E. Co/i) did it give?
Its value is “toxic for bacteria”.

With CCN1C(=O)C=CC1=O [NEM, N-ethylmaleimide] as the compound, how does the “Nrf2 staining and nuclear location” value (Nrf2) read?
Its value is “increased the nuclear accumulation of Nrf2”.
